Measurements reported in patent US20180184680A1, “LONG-LASTING COOLING FORMULATIONS” (WM. WRIGLEY JR. COMPANY, priority 2015, published 2018).

What was measured:
Subjects = assay: ESA panel evaluation of compressed mints (cooling strength, flavor strength, bitterness/off-taste); type: in vivo, human; conditions: for upfront cooling intensity: first 3 minutes, 9-point scale, WS-5 500 ppm
Procedure: All samples were prepared in a pilot plant under good manufacture practice conditions. Samples made for consumer descriptive analysis passed a metal detector test. One sample of each mint formulation was further evaluated in both Expert Sensory Analysis (ESA) and Descriptive Analysis tests.
Compressed mint samples were evaluated for cooling strength, flavor strength and bitterness, or off-taste in a randomized sampling order by a 9-point scale: 0 being the lowest and 9 being the highest. Subjects were allowed to suck the compressed mint (without biting or chewing) until completely dissolved. The coolant attributes were measured at different time points up to 15 minutes.
The level of WS-12 was increased to levels from 250 to 1000 ppm (0.025%-0.1% w/w) and additional ESA evaluations were conducted.

descriptive panel (N=8) = assay: Consumer-Descriptive Analysis panel study of compressed mints; type: in vivo, human
Procedure: All samples were prepared in a pilot plant under good manufacture practice conditions. Samples made for consumer descriptive analysis passed a metal detector test. One sample of each mint formulation was further evaluated in both Expert Sensory Analysis (ESA) and Descriptive Analysis tests. A Consumer-Descriptive Analysis panel study was conducted. Four mints containing various level of cooling blend were formulated at a pilot plant. During the test, each member of the descriptive panel (N=8) sucked one piece of mint until it completely dissolved. During the mint consumption, panelists evaluated various cooling attributes including oral cool and nasal cool at several specified time points. Flavor and sweetener intensity, bitterness, and off-taste were also evaluated. Panelists continued the evaluation even after mint consumption was complete, for a total of 20 minutes from the beginning of the test.

[1] = compressed mint, WS-12 1000 ppm, WS-5 and WS-12 250 ppm of each

SMILES	upfront cooling intensity (Subjects; [1])	oral cooling sustained after consumption (descriptive panel (N=8); compressed mint, WS-5)	oral cooling (descriptive panel (N=8); during the 15 minutes, vs control, WS-5 500 ppm, WS-5/WS-12 250/250 ppm)	cooling duration (Subjects; compressed mint, WS-12 1000 ppm, measured up to 15 minutes)	cooling after 6 min (Subjects; compressed mint, compared to mint comprising WS-23 (1000 ppm), WS-12 1000 ppm, WS-5 and WS-12 250 ppm of each)	cooling intensity, flavor intensity or duration of cooling versus the control mints (Subjects; compressed mints, low level of WS-12 (25-100 ppm))	oral cooling (descriptive panel (N=8); after the first 4 minutes, WS-23 0.1%)	oral cooling (descriptive panel (N=8); first 4 minutes, WS-23 0.1%)
CCOC(=O)CNC(=O)C1CC(C)CCC1C(C)C (stereo not drawn) [WS-5, N-(Ethoxycarbonylmethyl)-3-p-menthanecarboxamide]	strong cooling intensity upfront	up to 10 minutes	higher oral cooling	–	–	–	–	–
COc1ccc(NC(=O)[C@@H]2C[C@H](C)CC[C@H]2C(C)C)cc1 [WS-12, (1R,2S,5R)-N-(4-Methoxyphenyl)-5-methyl-2-(1-methylethyl)cyclohexanecarboxamide]	very low upfront cooling	–	–	> 15 min	significant more cooling	No significant difference	–	–
CNC(=O)C(C)(C(C)C)C(C)C [WS-23, N,2,3-Trimethyl-2-isopropylbutamide, reference compound]	–	–	–	–	–	–	lost cooling strength and became similar to the control	superior oral cooling
